Results on 11 compounds are retold here after patent publication US12492188B2, “1H-benzo[D]imidazole derivatives as TLR9 inhibitors for the treatment of fibrosis” (BRISTOL-MYERS SQUIBB COMPANY, priority 2020, dated 2025).

What all share (format): cell-based
For one assay, the target named is T1, human TLR8 (Homo sapiens, UniProt Q9NR97).
T1 construct: host or cells: HEK-Blue cells (HEK293-derived reporter line)
T1 sequence (Q9NR97 27-1041): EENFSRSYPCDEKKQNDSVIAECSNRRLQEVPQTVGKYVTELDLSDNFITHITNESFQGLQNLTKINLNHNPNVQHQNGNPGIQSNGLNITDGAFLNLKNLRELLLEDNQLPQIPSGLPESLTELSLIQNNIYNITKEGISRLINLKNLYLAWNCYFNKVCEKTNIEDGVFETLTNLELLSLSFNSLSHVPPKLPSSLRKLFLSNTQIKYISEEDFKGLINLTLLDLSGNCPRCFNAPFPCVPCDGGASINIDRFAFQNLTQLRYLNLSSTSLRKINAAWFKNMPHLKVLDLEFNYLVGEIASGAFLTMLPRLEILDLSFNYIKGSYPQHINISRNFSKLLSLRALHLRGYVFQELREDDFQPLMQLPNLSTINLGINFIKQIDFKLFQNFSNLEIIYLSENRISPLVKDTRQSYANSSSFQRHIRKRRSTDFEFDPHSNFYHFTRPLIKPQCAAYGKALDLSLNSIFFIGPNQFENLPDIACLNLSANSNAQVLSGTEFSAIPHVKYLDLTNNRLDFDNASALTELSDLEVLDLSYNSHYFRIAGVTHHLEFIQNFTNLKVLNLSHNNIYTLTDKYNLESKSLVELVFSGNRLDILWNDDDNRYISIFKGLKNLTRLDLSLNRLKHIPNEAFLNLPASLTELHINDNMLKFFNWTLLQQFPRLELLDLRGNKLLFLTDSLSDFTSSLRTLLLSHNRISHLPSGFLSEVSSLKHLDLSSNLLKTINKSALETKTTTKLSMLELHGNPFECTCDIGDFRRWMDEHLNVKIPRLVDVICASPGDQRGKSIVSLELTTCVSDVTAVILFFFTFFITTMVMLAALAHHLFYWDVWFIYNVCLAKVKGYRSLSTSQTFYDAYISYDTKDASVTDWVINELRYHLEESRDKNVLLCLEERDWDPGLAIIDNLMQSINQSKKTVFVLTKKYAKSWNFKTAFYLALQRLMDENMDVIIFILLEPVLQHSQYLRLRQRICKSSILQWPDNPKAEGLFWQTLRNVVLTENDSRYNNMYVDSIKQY
Description: TLR8 inhibition reporter assay (HEK-Blue cells, secreted embryonic alkaline phosphatase reporter). The settings on record: HEK-Blue cells overexpressing human TLR8, stimulated with R848 15.9 μM; read-out: TLR 8 IC50. In short, it runs like this: (§1)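 HEK-Blue cells overexpressing the respective receptor, with an NF-κB/AP-1-driven SEAP reporter, were pre-treated with compound (0.05 nM–50 μM) for 30 min at room temperature. Stimulation used gardiquimod 7.5 μM (TLR7), R848 15.9 μM (TLR8) or ODN2006 5 nM (TLR9); SEAP was read after 22 h at 37 °C as percent inhibition.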

The target in a further assay is T2, human TLR9 (Homo sapiens, UniProt Q9NR96).
T2 construct: host or cells: HEK-Blue cells (HEK293-derived reporter line)
T2 sequence (Q9NR96 26-1032): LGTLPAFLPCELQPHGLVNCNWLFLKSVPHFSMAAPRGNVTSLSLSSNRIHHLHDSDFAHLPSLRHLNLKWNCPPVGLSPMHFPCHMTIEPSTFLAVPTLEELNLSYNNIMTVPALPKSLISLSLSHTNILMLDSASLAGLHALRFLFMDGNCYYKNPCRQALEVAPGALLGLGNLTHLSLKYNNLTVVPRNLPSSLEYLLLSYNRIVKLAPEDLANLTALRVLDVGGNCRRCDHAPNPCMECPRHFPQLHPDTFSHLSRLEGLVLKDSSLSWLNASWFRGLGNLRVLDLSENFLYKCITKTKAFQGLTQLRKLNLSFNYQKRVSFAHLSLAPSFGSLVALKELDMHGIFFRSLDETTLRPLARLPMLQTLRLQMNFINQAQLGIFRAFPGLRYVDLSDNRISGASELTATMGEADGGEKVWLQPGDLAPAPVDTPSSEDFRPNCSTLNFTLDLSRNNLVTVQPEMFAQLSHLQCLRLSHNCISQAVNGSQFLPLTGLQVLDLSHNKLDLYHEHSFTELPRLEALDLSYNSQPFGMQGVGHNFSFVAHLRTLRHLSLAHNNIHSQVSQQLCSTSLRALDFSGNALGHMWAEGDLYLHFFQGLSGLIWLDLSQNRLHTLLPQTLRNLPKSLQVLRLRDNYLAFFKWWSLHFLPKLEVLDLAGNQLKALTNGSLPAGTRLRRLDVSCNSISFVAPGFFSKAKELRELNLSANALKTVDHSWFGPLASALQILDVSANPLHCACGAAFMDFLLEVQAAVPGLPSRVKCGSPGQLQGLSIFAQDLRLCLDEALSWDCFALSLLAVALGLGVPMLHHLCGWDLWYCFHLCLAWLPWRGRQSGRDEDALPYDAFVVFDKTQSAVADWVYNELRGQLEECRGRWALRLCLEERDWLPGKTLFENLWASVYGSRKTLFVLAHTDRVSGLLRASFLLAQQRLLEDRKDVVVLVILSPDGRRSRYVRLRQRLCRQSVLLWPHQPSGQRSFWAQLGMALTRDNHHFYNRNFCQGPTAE
As to the kind of experiment: TLR9 inhibition reporter assay (HEK-Blue cells, secreted embryonic alkaline phosphatase reporter). The settings on record: HEK-Blue cells overexpressing human TLR9, stimulated with ODN2006 5 nM. Put shortly: as §1

In the next assay the target is T3, human TLR7 (Homo sapiens, UniProt Q9NYK1).
T3 construct: host or cells: HEK-Blue cells (HEK293-derived reporter line)
T3 sequence (Q9NYK1 27-1049): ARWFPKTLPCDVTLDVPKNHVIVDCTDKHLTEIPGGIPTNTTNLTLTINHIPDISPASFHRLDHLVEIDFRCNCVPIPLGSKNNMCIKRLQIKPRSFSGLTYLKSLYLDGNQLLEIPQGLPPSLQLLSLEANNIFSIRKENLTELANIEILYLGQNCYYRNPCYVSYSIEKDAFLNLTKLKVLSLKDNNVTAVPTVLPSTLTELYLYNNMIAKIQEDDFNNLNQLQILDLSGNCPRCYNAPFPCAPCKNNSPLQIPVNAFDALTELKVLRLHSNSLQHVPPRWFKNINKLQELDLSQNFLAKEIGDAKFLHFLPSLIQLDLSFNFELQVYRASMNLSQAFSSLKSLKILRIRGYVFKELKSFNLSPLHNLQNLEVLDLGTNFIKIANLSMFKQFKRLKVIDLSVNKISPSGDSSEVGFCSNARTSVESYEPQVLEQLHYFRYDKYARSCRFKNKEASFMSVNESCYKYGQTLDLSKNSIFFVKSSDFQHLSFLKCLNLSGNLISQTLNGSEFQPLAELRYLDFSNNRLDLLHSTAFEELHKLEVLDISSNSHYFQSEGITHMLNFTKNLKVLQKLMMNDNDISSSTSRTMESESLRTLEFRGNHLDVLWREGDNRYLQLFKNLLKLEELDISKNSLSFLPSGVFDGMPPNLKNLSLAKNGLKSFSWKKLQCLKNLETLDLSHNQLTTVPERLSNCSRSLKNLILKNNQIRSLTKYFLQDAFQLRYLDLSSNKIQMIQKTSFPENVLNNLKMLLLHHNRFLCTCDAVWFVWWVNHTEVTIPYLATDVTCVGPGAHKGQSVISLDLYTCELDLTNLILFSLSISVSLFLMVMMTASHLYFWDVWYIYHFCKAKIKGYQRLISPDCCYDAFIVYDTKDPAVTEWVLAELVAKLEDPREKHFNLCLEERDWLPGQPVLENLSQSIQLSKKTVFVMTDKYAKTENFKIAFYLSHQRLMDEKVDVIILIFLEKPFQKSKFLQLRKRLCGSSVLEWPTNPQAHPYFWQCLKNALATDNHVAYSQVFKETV
As to the kind of experiment: TLR7 inhibition reporter assay (HEK-Blue cells, secreted embryonic alkaline phosphatase reporter). The settings on record: HEK-Blue cells overexpressing human TLR7, stimulated with gardiquimod 7.5 μM; read-out: TLR 7 IC50. In short, it runs like this:
as §1

[1] abbreviates: 22 hour incubation, reporter readout.

Read-outs that look alike come from different tables or passages of the source. Bounds are passed on as bounds.

In the case of `COc1ccc(-c2nc3cc(C4CCN(C5CCN(CC(C)C)CC5)CC4)ccc3n2C)cc1OC` [Example 34, 2-(3,4-dimethoxyphenyl)-5-(1′-isobutyl-[1,4′-bipiperidin]-4-yl)-1-methyl-1H-benzo[d]imidazole], the IC50 at human TLR8 was more than 50000 nM; against human TLR9 (setting [1]) it was 170 nM; at human TLR9 (read-out: TLR 9 IC50), 173 nM; at human TLR7, 16000 nM.
As for `COc1ccc(-c2nc3cc(C4CCN(C5CCN(CC(C)C)CC5)CC4)ccc3n2C(C)C)cc1OC` [Example 36, 2-(3,4-dimethoxyphenyl)-5-(1′-isobutyl-[1,4′-bipiperidin]-4-yl)-1-isopropyl-1H-benzo[d]imidazole], the IC50 was determined as 4600 nM at human TLR8, 360 nM on human TLR9 (setting [1]), 357 nM on human TLR9 (read-out: TLR 9 IC50) and 6600 nM on human TLR7.
As for `COc1ccc(-c2nc3cc(C4CCN(C5CCN(C6CC6)CC5)CC4)ccc3n2C(C)C)cc1OC` [Example 37, 5-(1′-cyclopropyl-[1,4′-bipiperidin]-4-yl)-2-(3,4-dimethoxyphenyl)-1-isopropyl-1H-benzo[d]imidazole], the IC50 at human TLR8 is more than 50000 nM; against human TLR9 (setting [1]), 390 nM; on human TLR9 (read-out: TLR 9 IC50), 388 nM; at human TLR7, 7500 nM.
Turning to `COc1ccc(-c2nc3cc(C4CCN(C5CCN(CC(C)C)CC5)CC4)ccc3n2CC(F)F)cc1OC` [Example 38, 1-(2,2-difluoroethyl)-2-(3,4-dimethoxyphenyl)-5-(1′-isobutyl-[1,4′-bipiperidin]-4-yl)-1H-benzo[d]imidazole], the IC50 is more than 50000 nM at human TLR8, 210 nM at human TLR9 (setting [1]), 208 nM on human TLR9 (read-out: TLR 9 IC50) and 3400 nM at human TLR7.
The matching figures for `COc1ccc(-c2nc3cc(C4CCN(C5CCN(C6CC6)CC5)CC4)ccc3n2CC(F)F)cc1OC` [Example 39, 5-(1′-cyclopropyl-[1,4′-bipiperidin]-4-yl)-1-(2,2-difluoroethyl)-2-(3,4-dimethoxyphenyl)-1H-benzo[d]imidazole]: 30000 nM, 590 nM, 590 nM and 6400 nM.
The matching figures for `CCn1c(-c2ccc(OC)c(OC)c2)nc2ccc(C3CCN(C4CCN(CC(C)C)CC4)CC3)cc21` [Example 40, 2-(3,4-dimethoxyphenyl)-1-ethyl-6-(1′-isobutyl-[1,4′-bipiperidin]-4-yl)-1H-benzo[d]imidazole]: 46000 nM, 150 nM, 149 nM and 2300 nM.
For `CCn1c(-c2ccc(OC)c(OC)c2)nc2cc(C3CCN(C4CCN(CC(C)C)CC4)CC3)ccc21` [Example 41, 2-(3,4-dimethoxyphenyl)-1-ethyl-5-(1′-isobutyl-[1,4′-bipiperidin]-4-yl)-1H-benzo[d]imidazole], in that order: 1600 nM, 400 nM, 404 nM and 3700 nM.
`COc1ccc(-c2nc3cc(C4CCN(C5CCN(CC(C)C)CC5)CC4)c(C(F)(F)F)cc3[nH]2)cc1OC` [Example 42, 2-(3,4-dimethoxyphenyl)-5-(1′-isobutyl-[1,4′-bipiperidin]-4-yl)-6-(trifluoromethyl)-1H-benzo[d]imidazole]: the IC50 on human TLR8 was more than 50000 nM; against human TLR9 (setting [1]), 260 nM; on human TLR9 (read-out: TLR 9 IC50) it was 255 nM; at human TLR7, 32000 nM.
Turning to `COc1ccc(-c2nc3c(C)cc(C4CCN(C5CCN(CC(C)C)CC5)CC4)cc3[nH]2)cc1OC` [Example 43, 2-(3,4-dimethoxyphenyl)-6-(1′-isobutyl-[1,4′-bipiperidin]-4-yl)-4-methyl-1H-benzo[d]imidazole tris(2,2,2-trifluoroacetate)], the half-maximal inhibitory concentration (IC50) on human TLR8 is 31000 nM; on human TLR9 (setting [1]), 9.8 nM; on human TLR9 (read-out: TLR 9 IC50), 9.8 nM; on human TLR7, 650 nM.
As for `COc1ccc(-c2nc3c(C)cc(C4CCN(C5CCN(C6CC6)CC5)CC4)cc3[nH]2)cc1OC` [Example 44, 6-(1′-cyclopropyl-[1,4′-bipiperidin]-4-yl)-2-(3,4-dimethoxyphenyl)-4-methyl-1H-benzo[d]imidazole], the IC50 at human TLR8 was 5500 nM; at human TLR9 (setting [1]), 52 nM; on human TLR9 (read-out: TLR 9 IC50) it was 52 nM; at human TLR7, 9100 nM.
As to `COc1ccc(-c2nc3c(C)cc(C4CCN(C5CCN(C(C)C)CC5)CC4)cc3n2C)cc1OC` [Example 45, 2-(3,4-dimethoxyphenyl)-6-(1′-isopropyl-[1,4′-bipiperidin]-4-yl)-1,4-dimethyl-1H-benzo[d]imidazole], the IC50 at human TLR8 is more than 50000 nM; at human TLR9 (setting [1]), 20 nM; on human TLR9 (read-out: TLR 9 IC50) it was 20 nM; on human TLR7, 11000 nM.
